Measurements from patent publication US7507727B2, “Substituted quinobenzoxazine analogs and methods of using thereof” (Cylene Pharmaceuticals, Inc., priority 2003, dated 2009).
“Also recorded” adds a separate entry of the source.

Columns and labels:
[1] = test system: native quadruplex structures that regulate different oncogenes; assay: Quadrome footprints; format: binding; settings: FIG. 4
Source text: Quadrome Footprints. Compounds may be evaluated for their ability to bind to other native quadruplex structures of biological relevance, including quadruplex control elements that regulate a range of different oncogenes.

topoisomerase II = assay: Topoisomerase-II poison assay; format: biochemical
Source text: FIG. 7 illustrates data from a toposiomerase-II poison assay, using VP-16 (Etoposide) as a control Topoisomerase-II poison.

CYP1A2 = CYP1A2 (Homo sapiens, UniProt P05177); assay: Cytochrome P450 inhibition assay; format: in vitro ADME
Procedure: (§1) Cytochrome P450 (CYP450) Inhibition Assay. […] The reactions were initiated by adding 100 μL of a pre-warmed enzyme/substrate solution to the reaction tubes. A zero time-point control reaction was prepared by adding 50 μL of acetonitrile to 100 μL of cofactor solution to inactivate the enzymes, then adding 100 μL of enzyme/substrate solution. A control reaction with no inhibitor was also prepared. After a suitable incubation at 37° C., the reactions were terminated by the addition of 50 μL of acetonitrile. The reactions were analyzed for the metabolite forms of the probe substrate using LC/MS/MS. Each assay was performed in duplicate.

CYP2C19 = CYP2C19 (Homo sapiens, UniProt P33261); assay: Cytochrome P450 inhibition assay; format: in vitro ADME
Procedure: as §1

CYP2C9 = CYP2C9 (Homo sapiens, UniProt P11712); assay: Cytochrome P450 inhibition assay; format: in vitro ADME
Procedure: as §1

CYP2D6 = CYP2D6 (Homo sapiens, UniProt P10635); assay: Cytochrome P450 inhibition assay; format: in vitro ADME
Procedure: as §1

CYP3A4 = CYP3A4 (Homo sapiens, UniProt P08684); assay: Cytochrome P450 inhibition assay; format: in vitro ADME
Procedure: as §1

[2] = Metabolic stability and metabolite profiling in hepatocytes; format: in vitro ADME, human
Procedure: Metabolic Stability Assay and Metabolite Profiling. A human hepatocyte assay to profile metabolites was carried out using commercially available kits and following standard procedures. The metabolic stability of CX-3543 with human hepatocytes was evaluated following incubation at 0, 30, 60, and 120 minutes at 1 and 20 μM. Consumption of the parent compound and the appearance of metabolites were carefully monitored, and mass spectrometer product ion scans were conducted on potential metabolite peaks to define the metabolite fragmentation pattern.
The protocol is designed to determine the stability of a new chemical entity in the presence of hepatocytes (human, rat, dog, monkey) in in vitro incubations. The test article will be incubated with hepatocytes and suitable media for various times at 37° C. The reaction mixtures will be extracted and analyzed by LC/MS/MS for the parent compound and anticipated metabolites. If applicable, a half-life will be calculated for the consumption of the test article. Metabolism controls will be run for comparison of the half-life values with that obtained for the test article. The metabolism controls are tolbutamide, desipramine and naloxone, and these compounds have defined pharmacokinetics corresponding to low, moderate and high in vivo clearance values, respectively.
Metabolic Stability Study. Generally, solutions of the test compounds are prepared along with a cocktail solution of metabolism controls that are intended to provide a reference for enzyme activity. The reactions are initiated by combining these pre-warmed solutions with hepatocyte suspensions and with a media control solution. Control zero samples are taken from these reactions immediately after initiation. Additional samples are taken at appropriate time points. Each sample is immediately placed in a terminating solution (acidified acetonitrile containing internal standard) to stop the reaction. Hepatocyte blank suspensions and test compound standard solutions are prepared.
Samples and standards for the test compound as well as appropriate blanks are subjected to a custom sample preparation procedure and analyzed for the parent and/or metabolite form of the test compound using high-performance liquid chromatography coupled with tandem mass spectrometry. Samples and standards for the metabolism controls are subjected to the analytical method described herein. Where Krebs Henseleit buffer is added, the buffer is bubbled with 5% CO2 in air at room temperature for 5-10 minutes before adding BSA to a final concentration of 0.2% w/v. The volume of terminating solution and the method of sample preparation will be determined for the test article during method development.
Test Article/Media Solution. A solution of the test article will be prepared by adding an appropriate volume of the stock solution to 0.2% BSA in Krebs Henseleit buffer equilibrated with 5% CO2 in air. The final concentration will be 20 μM and the final assay concentration at initiation of the reactions will be […].
Metabolism Controls/Media Solution. A solution of tolbutamide, desipramine and naloxone will be prepared by adding an appropriate volume of each 10 mM stock solution to 0.2% BSA in Krebs Henseleit buffer equilibrated with 5% CO2 in air. […]
Hepatocyte Suspension Solution. […] During the final step of the procedure, the viability of the cells will be determined using the method of trypan blue exclusion. […]

HCT-116 xenograft = assay: HCT-116 colorectal cancer xenograft model; format: in vivo; settings: HCT-116; 10, 15 and 20 mg/kg; FIG. 8
Procedure: Two xenograft models for inoculation were harvested and diluted to a concentration of 50×10^6 cells/ml or 100×10^6 cells/ml. Four to six week old nude mice were injected with 0.1 ml of the cell suspension containing between 5×10^6 and 10×10^6 cells. When tumors are of a suitable size compound dosing is commenced. Tumor sizes are measured throughout the treatment period with calipers and body weights also measured.
(§2) CX-3543 was tested against a number of cancer xenograft models to determine the in vivo efficacy. HCT-116 and PC-3 tumor-bearing nu/nu or MiaPaCa tumor-bearing SCID mice were administered reference and testing compounds on schedules indicated in figure legends. Tumor measurements were taken with calipers every other day or twice a week starting from the first day of dosing and body weights were measured at the same time points. Tumor volumes were calculated from the standard formula, W^2×L/2. c-MYC mRNA expression was measured with QPCR from all tumor samples following the final dose. 18S ribosomal RNA was used as a housekeeper and also quantified with QPCR.

c-MYC mRNA = c-MYC mRNA expression in tumor samples by QPCR; format: in vivo, mice; settings: HCT-116
Procedure: as §2

Chain of CYP3A4 (P08684 whole entry): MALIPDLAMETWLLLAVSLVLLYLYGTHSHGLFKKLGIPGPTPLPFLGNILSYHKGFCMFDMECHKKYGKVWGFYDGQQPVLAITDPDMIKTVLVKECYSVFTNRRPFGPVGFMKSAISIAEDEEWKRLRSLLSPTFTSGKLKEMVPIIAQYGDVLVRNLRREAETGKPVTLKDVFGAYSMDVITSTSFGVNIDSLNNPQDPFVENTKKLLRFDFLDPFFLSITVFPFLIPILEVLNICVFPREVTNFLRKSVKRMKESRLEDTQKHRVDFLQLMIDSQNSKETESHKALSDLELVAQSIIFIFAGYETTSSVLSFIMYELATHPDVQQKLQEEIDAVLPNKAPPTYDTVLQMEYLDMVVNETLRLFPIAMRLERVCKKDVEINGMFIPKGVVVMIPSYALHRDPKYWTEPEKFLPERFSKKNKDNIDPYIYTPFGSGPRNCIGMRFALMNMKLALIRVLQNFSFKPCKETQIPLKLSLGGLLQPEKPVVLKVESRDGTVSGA
Chain of CYP2D6 (P10635 whole entry): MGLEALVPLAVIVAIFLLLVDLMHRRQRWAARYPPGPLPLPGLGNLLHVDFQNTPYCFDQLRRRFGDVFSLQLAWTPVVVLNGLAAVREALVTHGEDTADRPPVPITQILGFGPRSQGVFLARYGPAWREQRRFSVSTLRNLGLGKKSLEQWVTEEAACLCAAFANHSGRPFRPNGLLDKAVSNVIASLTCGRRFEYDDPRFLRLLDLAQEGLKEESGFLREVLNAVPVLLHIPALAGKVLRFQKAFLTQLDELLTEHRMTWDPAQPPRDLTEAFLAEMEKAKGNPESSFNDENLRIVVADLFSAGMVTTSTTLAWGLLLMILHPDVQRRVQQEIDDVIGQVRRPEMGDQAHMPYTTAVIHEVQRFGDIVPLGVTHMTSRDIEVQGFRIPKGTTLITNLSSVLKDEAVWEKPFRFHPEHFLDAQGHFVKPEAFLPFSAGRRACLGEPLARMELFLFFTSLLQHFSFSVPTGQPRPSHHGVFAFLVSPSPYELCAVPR
Chain of CYP2C9 (P11712 whole entry): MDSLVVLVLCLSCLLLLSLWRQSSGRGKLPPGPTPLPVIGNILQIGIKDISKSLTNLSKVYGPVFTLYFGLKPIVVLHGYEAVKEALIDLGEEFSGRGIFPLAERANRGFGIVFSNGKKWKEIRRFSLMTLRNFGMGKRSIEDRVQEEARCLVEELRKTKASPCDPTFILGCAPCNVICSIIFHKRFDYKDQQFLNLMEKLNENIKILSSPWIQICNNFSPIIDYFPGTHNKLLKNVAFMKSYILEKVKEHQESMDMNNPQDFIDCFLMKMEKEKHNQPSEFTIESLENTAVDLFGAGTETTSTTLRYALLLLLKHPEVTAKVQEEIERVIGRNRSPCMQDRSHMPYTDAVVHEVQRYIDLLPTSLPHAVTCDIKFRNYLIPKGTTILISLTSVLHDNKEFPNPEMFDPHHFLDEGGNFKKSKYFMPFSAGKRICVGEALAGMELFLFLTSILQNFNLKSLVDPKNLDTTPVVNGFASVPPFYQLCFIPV
Chain of CYP1A2 (P05177 whole entry): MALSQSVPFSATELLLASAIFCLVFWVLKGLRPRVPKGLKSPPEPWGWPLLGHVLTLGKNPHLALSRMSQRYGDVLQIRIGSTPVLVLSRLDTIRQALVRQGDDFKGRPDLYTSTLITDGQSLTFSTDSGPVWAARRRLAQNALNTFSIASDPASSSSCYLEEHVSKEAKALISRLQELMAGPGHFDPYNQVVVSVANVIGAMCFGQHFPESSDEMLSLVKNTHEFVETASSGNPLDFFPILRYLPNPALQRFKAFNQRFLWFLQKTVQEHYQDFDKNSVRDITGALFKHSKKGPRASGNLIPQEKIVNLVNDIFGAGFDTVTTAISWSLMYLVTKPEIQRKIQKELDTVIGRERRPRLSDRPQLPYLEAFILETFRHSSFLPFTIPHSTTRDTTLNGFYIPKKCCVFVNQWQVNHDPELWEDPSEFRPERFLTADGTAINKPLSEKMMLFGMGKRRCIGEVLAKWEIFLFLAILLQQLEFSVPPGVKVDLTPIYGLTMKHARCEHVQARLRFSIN
Chain of CYP2C19 (P33261 whole entry): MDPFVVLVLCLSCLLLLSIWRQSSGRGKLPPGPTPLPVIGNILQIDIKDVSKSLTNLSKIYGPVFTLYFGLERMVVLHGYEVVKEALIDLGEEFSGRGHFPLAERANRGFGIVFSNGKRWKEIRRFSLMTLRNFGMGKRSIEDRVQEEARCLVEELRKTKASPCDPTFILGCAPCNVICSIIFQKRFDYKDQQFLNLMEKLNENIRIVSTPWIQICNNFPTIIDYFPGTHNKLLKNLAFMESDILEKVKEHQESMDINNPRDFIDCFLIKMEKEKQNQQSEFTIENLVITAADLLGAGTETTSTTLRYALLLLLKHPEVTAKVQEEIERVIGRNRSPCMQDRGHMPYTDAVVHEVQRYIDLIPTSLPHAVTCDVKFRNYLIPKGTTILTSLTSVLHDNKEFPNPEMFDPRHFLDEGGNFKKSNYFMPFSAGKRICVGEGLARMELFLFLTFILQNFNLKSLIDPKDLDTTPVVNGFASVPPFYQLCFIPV

CN1CCCC1CCNC(=O)c1cn2c3c(c(N4CCC(c5cnccn5)C4)c(F)cc3c1=O)Oc1cc3ccccc3cc1-2 (centres unmarked) [CX-3543]
selectivity footprint by oncogene [1]: selectively binds to those quadruplexes that are capable of adopting the chair/propeller conformation | inhibitory activity against topoisomerase II (topoisomerase II): not to be an inhibitor or poison | concentration up to which no topoisomerase dependent strand breaks were induced (topoisomerase II; supercoiled DNA, FIG. 7): > 100 µM | inhibition of CYP1A2 (CYP1A2): No significant inhibition | inhibition of CYP2C19 (CYP2C19): No significant inhibition | inhibition of CYP2C9 (CYP2C9): No significant inhibition | IC50 (CYP2C9; isoform 2C9, substrate Diclofenac): > 10 µM | inhibition of CYP2D6 (CYP2D6): No significant inhibition | IC50 (CYP2D6; isoform 2D6, substrate Dextromethorphan): > 25 µM | range in which only minor and partial inhibition of CYP3A4 was evident (CYP3A4): 1 to 3 µM | IC50 (CYP3A4; isoform 3A4, substrate Midazolam): 1.4 µM | IC50 (CYP3A4; isoform 3A4, substrate Testosterone): 3.3 µM | metabolites in the hepatocyte incubation medium ([2]; 0 vs 120 min): no single major metabolite is present | consumption by hepatocytes ([2]; 1 uM): very slowly | original drug remaining ([2]; at or below 12 uM): about 60% | consumption by hepatocytes ([2]; concentrations from about 12-20 uM): moderately to quickly | Km ([2]; human, human hepatocytes (suspension), read-out: apparent Km of consumption by hepatocytes): > 20 µM | tumor growth inhibition (HCT-116 xenograft): inhibits tumor growth; also recorded: significant tumor growth inhibition | lowering of c-Myc mRNA expression relative to control (18s rRNA) in tumor tissue (c-MYC mRNA; 20 mg/kg group): 85% | c-Myc mRNA expression relative to control (18s rRNA) in tumor tissue (c-MYC mRNA; 10, 15 and 20 mg/kg): dose-dependent lowering
